Reference: ChEMBL document CHEMBL3875173, “Phenyltetrazolyl-phenylamides: Substituent impact on modulation capability and selectivity toward the efflux protein ABCG2 and investigation of interaction with the transporter” (Eur J Med Chem, 2016)

Tests used:
ABCG2 [1] = biological target: T1, ABCG2 (Homo sapiens, UniProt Q9UNQ0); assay: Inhibition of recombinant human GFP-fused ABCG2 expressed in MDCK2 cells assessed as reduction in Hoechst 33342 efflux at 10 uM preincubated for 30 mins followed by Hoechst 33342 addition measured immediately at 60 sec time interval for 120 mins by fluorescence assay relative to XR9577; type: cell-based, MDCK-II; settings: MDCK2 cells expressing recombinant human GFP-fused ABCG2, probe Hoechst 33342, read-out: Imax
T1 sequence (Q9UNQ0 whole entry): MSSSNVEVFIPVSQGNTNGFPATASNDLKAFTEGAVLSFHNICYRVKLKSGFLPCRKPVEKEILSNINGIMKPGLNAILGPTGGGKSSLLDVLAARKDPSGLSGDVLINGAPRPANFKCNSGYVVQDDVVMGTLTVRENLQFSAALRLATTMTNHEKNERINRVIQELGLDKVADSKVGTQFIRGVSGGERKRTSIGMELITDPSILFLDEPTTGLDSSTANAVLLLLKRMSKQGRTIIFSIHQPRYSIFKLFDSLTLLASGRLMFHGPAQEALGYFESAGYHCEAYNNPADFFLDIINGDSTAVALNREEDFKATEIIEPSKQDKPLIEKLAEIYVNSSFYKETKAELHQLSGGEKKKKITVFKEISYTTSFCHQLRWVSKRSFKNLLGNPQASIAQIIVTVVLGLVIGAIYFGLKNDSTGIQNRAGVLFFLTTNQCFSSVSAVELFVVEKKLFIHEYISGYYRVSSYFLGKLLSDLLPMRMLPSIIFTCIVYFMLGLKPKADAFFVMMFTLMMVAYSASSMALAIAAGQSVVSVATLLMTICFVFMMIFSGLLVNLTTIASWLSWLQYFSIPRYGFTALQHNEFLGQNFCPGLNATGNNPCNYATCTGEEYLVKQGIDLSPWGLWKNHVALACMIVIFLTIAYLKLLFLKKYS

[2] = biological target: T2, Broad substrate specificity ATP-binding cassette transporter ABCG2 (Homo sapiens, UniProt Q9UNQ0); assay: Inhibition of recombinant human GFP-fused ABCG2 expressed in MDCK2 cells assessed as reduction in Hoechst 33342 efflux preincubated for 30 mins followed by Hoechst 33342 addition measured immediately at 60 sec time interval for 120 mins by fluorescence assay; type: cell-based, MDCK-II
T2 sequence (Q9UNQ0 whole entry): T1 sequence (Q9UNQ0 whole entry)

ABCG2 [3] = biological target: T1, ABCG2; assay: Inhibition of recombinant human GFP-fused ABCG2 expressed in MDCK2 cells assessed as reduction in pheophorbide A efflux at 10 uM preincubated for 30 mins followed by pheophorbide A addition measured after 2 hrs by flow cytometry relative to XR9577; type: cell-based, MDCK-II; settings: MDCK2 cells expressing recombinant human GFP-fused ABCG2, probe pheophorbide A, read-out: Imax
[4] = biological target: T2, Broad substrate specificity ATP-binding cassette transporter ABCG2; assay: Inhibition of recombinant human GFP-fused ABCG2 expressed in MDCK2 cells assessed as reduction in pheophorbide A efflux preincubated for 30 mins followed by pheophorbide A addition measured after 2 hrs by flow cytometry; type: cell-based, MDCK-II
ABCB1 [5] = biological target: T3, ABCB1 (Homo sapiens, UniProt P08183); assay: Inhibition of ABCB1 in human A2780/ADR cells assessed as reduction in calcien-AM efflux at 10 uM preincubated for 30 mins followed by calcien-AM addition measured immediately at 60 sec time interval for 60 mins by fluorescence assay relative to cyclosporine A; type: cell-based; settings: probe calcein-AM (printed calcien-AM), read-out: Imax
[6] = biological target: ATP-dependent translocase ABCB1 (Homo sapiens, UniProt P08183); assay: Inhibition of ABCB1 in human A2780/ADR cells assessed as reduction in calcien-AM efflux preincubated for 30 mins followed by calcien-AM addition measured immediately at 60 sec time interval for 60 mins by fluorescence assay; type: cell-based
ABCB1 [7] = biological target: T3, ABCB1; assay: Potency index, ratio of cyclosporine A IC50 to compound IC50 for ABCB1 in human A2780/ADR cells; type: cell-based; settings: read-out: Ratio IC50
ABCG2 [8] = biological target: T1, ABCG2; assay: Potency index, ratio of Ko143 IC50 to compound IC50 for recombinant human GFP-fused ABCG2 expressed in MDCK2 cells assessed as reduction in Hoechst 33342 efflux; type: cell-based; settings: MDCK2 cells expressing recombinant human GFP-fused ABCG2, probe Hoechst 33342, read-out: Ratio IC50
ABCG2 [9] = biological target: T1, ABCG2; assay: Potency index, ratio of Ko143 IC50 to compound IC50 for recombinant human GFP-fused ABCG2 expressed in MDCK2 cells assessed as reduction in pheophorbide A efflux; type: cell-based; settings: MDCK2 cells expressing recombinant human GFP-fused ABCG2, probe pheophorbide A, read-out: Ratio IC50
[10] = biological target: T2, Broad substrate specificity ATP-binding cassette transporter ABCG2; assay: Non-competitive inhibition of recombinant human GFP-fused ABCG2 expressed in MDCK2 cells assessed as reduction in pheophorbide A efflux at 0.0178 to 0.1 uM preincubated for 30 mins followed by addition of varying levels of pheophorbide A by Lineweaver-Burk plot analysis; type: cell-based; settings: mdck-ii
[11] = biological target: T2, Broad substrate specificity ATP-binding cassette transporter ABCG2; assay: Competitive inhibition of recombinant human GFP-fused ABCG2 expressed in MDCK2 cells assessed as reduction in Hoechst 33342 efflux at 0.01 to 0.1 uM preincubated for 30 mins followed by addition of varying levels of Hoechst 33342 by Lineweaver-Burk plot analysis; type: cell-based; settings: mdck-ii

ATP-dependent translocase ABCB1, sequence (P08183 whole entry): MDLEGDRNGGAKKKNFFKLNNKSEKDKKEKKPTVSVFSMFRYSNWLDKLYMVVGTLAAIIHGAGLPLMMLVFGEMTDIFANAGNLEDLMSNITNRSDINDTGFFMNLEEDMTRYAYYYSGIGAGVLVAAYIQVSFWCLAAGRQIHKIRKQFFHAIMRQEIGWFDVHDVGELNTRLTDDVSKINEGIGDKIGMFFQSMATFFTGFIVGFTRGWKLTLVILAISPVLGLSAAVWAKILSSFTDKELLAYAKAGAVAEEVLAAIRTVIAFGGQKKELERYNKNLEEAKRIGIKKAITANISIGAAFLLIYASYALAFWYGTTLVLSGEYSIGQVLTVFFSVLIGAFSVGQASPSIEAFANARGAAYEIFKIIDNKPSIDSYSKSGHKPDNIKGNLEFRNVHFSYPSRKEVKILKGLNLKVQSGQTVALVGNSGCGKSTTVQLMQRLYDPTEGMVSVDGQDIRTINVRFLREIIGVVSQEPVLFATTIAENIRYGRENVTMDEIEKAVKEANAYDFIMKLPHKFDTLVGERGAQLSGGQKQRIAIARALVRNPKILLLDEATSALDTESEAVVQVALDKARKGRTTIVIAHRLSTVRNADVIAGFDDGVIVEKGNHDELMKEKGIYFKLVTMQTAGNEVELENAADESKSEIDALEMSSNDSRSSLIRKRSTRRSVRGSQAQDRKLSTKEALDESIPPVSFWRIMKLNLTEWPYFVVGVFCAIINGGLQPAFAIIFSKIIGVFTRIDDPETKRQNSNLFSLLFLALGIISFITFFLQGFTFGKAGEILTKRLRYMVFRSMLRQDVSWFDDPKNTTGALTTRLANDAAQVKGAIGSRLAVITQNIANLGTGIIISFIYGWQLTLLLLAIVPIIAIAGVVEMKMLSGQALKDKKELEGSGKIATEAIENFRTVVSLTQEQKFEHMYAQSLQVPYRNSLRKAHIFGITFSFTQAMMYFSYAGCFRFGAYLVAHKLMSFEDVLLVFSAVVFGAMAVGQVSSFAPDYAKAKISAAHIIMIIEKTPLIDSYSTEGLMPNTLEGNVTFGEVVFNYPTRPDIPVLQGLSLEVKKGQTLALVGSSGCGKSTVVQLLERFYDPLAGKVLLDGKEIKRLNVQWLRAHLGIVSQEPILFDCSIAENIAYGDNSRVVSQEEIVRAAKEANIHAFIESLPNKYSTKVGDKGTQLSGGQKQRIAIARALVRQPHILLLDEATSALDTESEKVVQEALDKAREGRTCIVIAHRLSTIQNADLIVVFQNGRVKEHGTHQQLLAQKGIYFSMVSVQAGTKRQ
T3 sequence (P08183 whole entry): as above

SMILES	Emax at 2 h, 10 µM (ABCG2 [1]) [%]	IC50 [2] [nM]	Emax at 2 h, 10 µM (ABCG2 [3]) [%]	IC50 [4] [nM]	inhibition at 1 h, 10 µM (ABCB1 [5]) [%]	IC50 [6] [nM]	inhibition (INH) [10]	inhibition (INH) [11]	selectivity ratio (ABCB1 [7])	selectivity ratio (ABCG2 [8])	selectivity ratio (ABCG2 [9])
CCOc1ccc(-n2nnc(-c3ccccc3NC(=O)c3ccccc3[N+](=O)[O-])n2)cc1	72	308									
COc1ccc(-n2nnc(-c3ccccc3NC(=O)c3ccccc3[N+](=O)[O-])n2)cc1	76	266	61	311	≤ 25	6200					
COc1ccc(-n2nnc(-c3ccccc3NC(=O)c3cccc([N+](=O)[O-])c3)n2)cc1	57	168	56	247							
O=C(Nc1ccccc1-c1nnn(-c2ccccc2)n1)c1ccc([N+](=O)[O-])cc1	60	150	69	321							
CCCc1ccc(C(=O)Nc2ccccc2-c2nnn(-c3ccccc3)n2)cc1	100	212	85	96.6	≤ 25	8140					
O=C(Nc1ccccc1-c1nnn(-c2ccccc2)n1)c1ccccc1	90	66.9	109	64	≤ 25	21800				3 to 4	3 to 4
O=C(Nc1ccccc1-c1nnn(-c2ccccc2)n1)c1ccccc1[N+](=O)[O-]	57	280	76	458	< 10						
COc1ccc(-n2nnc(-c3ccccc3NC(=O)c3ccccc3)n2)cc1OC	104	230	95	212	≤ 25	4030					
CCCc1ccc(C(=O)Nc2ccccc2-c2nnn(-c3ccc(OC(=O)c4ccc(CCC)cc4)cc3)n2)cc1		> 10000									
COc1ccc(C(=O)Nc2ccccc2-c2nnn(-c3ccc(Oc4ccccc4)cc3)n2)cc1		> 10000									
CCCc1ccc(C(=O)Nc2ccccc2-c2nnn(-c3ccc(Oc4ccccc4)cc3)n2)cc1		> 10000									
COc1ccc(C(=O)Nc2ccccc2-c2nnn(-c3ccccc3)n2)cc1OC	102	832	86	511							
O=C(Nc1ccccc1-c1nnn(-c2ccccc2)n1)c1cccc([N+](=O)[O-])c1	91	127	98	123	≤ 25	9400					
COc1ccc(C(=O)Nc2ccccc2-c2nnn(-c3ccc(OC)c(OC)c3)n2)cc1	100	319			≤ 25	3200					

The next lines start with results.

Emax at 2 h, 10 µM (ABCG2 [1]) [%]	IC50 [2] [nM]	Emax at 2 h, 10 µM (ABCG2 [3]) [%]	IC50 [4] [nM]	inhibition at 1 h, 10 µM (ABCB1 [5]) [%]	IC50 [6] [nM]	inhibition (INH) [10]	inhibition (INH) [11]	SMILES	selectivity ratio (ABCB1 [7])	selectivity ratio (ABCG2 [8])	selectivity ratio (ABCG2 [9])
50	793							CCOc1ccc(-n2nnc(-c3ccccc3NC(=O)c3ccc(OC)cc3)n2)cc1			
59	223							COc1ccc(C(=O)Nc2ccccc2-c2nnn(-c3ccc(Cl)cc3)n2)cc1			
	> 10000							CC(C)c1ccc(-n2nnc(-c3ccccc3NC(=O)c3ccc(C(F)(F)F)cc3)n2)cc1			
106	204	107	129	≤ 25	434			CCCc1ccc(C(=O)Nc2ccccc2-c2nnn(-c3ccc(O)cc3)n2)cc1	3		
91	221	77	117	≤ 25	9780			CSc1ccc(-n2nnc(-c3ccccc3NC(=O)c3ccccc3[N+](=O)[O-])n2)cc1			
	> 10000							O=C(Nc1ccccc1-c1nnn(-c2ccc(Cl)cc2)n1)c1ccc([N+](=O)[O-])cc1			
	> 10000							CSc1ccc(-n2nnc(-c3ccccc3NC(=O)c3ccc(C(F)(F)F)cc3)n2)cc1			
	> 10000							CSc1ccc(-n2nnc(-c3ccccc3NC(=O)c3ccc([N+](=O)[O-])cc3)n2)cc1			
100	199	92	300	≤ 25	2880			COc1ccc(C(=O)Nc2ccccc2-c2nnn(-c3ccc(OC)cc3)n2)cc1			
101	200	93	208	≤ 25	5470	Active	Active	COc1ccc(C(=O)Nc2ccccc2-c2nnn(-c3ccccc3)n2)cc1			
100	132	85	251	≤ 25	4200			COc1ccc(C(=O)Nc2ccccc2-c2nnn(-c3ccc(SC)cc3)n2)cc1			
100	4390	100	3630					O=C(Nc1ccccc1-c1nnn(-c2ccccc2)n1)c1ccc(C(F)(F)F)cc1			
80	330			≤ 25	10200			COc1ccc(-n2nnc(-c3ccccc3NC(=O)c3ccc(C(F)(F)F)cc3)n2)cc1OC			
97	136	95	131	≤ 25	19400			COc1ccc(C(=O)Nc2ccccc2-c2nnn(-c3ccc(C(C)C)cc3)n2)cc1			
76	783	69	679					CCCc1ccc(C(=O)Nc2ccccc2-c2nnn(-c3ccc(SC)cc3)n2)cc1			
